This passage reports pest or weed control, inhibition of growth and melting point results from patent publication US20240343717A1, “MICROBIOCIDAL PYRAZOLE DERIVATIVES” (SYNGENTA CROP PROTECTION AG, priority 2021, published 2024).

A word on the melting point: it is the temperature, or range, at which the solid turns liquid.

SMILES strings stand for the structures.

Series [1] relates to Blumeria graminis f. sp. tritici (Erysiphe graminis f. sp. tritici). In words: Blumeria graminis f. sp. tritici / wheat / leaf disc preventative (powdery mildew on wheat). To be noted: foliar, wheat leaf segments, inoculated 1 day after application. The class given is in vivo. In outline: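 Wheat cv. Kanzler leaf segments on agar sprayed with formulated compound in water, inoculated 1 day later by shaking mildew-infected plants overhead. Incubated at 20° C, 60% rh, 24 h dark then 12 h light/12 h dark. Percent disease control versus untreated scored 6-8 days after application.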

Series [2] has as its system Magnaporthe grisea (Pyricularia Oryzae). In words: whole plant or invertebrate. The class given is in vivo. To be noted: foliar, read-out: control of Magnaporthe grisea.
Series [3] has as its system Pyrenophora teres. Kind of series: Pyrenophora teres / barley / leaf disc preventative (net blotch). The class given is in vivo. Conditions: foliar, barley leaf segments, inoculated 2 days after application. In outline: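 Barley cv. Hasso leaf segments on agar sprayed with formulated compound, inoculated with spores 2 days later. Incubated at 20 °C, 65% rh, 12 h light/dark; disease control versus untreated assessed 5–7 days after application.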

Series [4] has as its system Botryotinia fuckeliana (Botrytis cinerea). Kind of series: Botryotinia fuckeliana (Botrytis cinerea) / liquid culture (gray mould). Format: cell-based. To be noted: growth inhibition photometrically 3-4 days after application, read-out: control of Botryotinia fuckeliana. An outline of the steps: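 Conidia suspended in Vogels broth and added to compound dispensed from DMSO. Incubated at 24°C, with growth inhibition measured photometrically 3–4 days later.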

In series [5] the test system is Glomerella lagenarium (Colletotrichum lagenarium). Kind of series: Glomerella lagenarium (Colletotrichum lagenarium) / liquid culture (anthracnose). The class given is cell-based. Conditions: Colletotrichum orbiculare, growth inhibition photometrically 3-4 days after application, read-out: control of Glomerella lagenarium. In outline:
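Cryo-stored conidia in potato dextrose broth were added to test compound in DMSO. Plates were incubated at 24° C, and growth inhibition was read photometrically 3-4 days after application.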

Series [6] relates to Fusarium culmorum. Kind of series: microbe, parasite or virus in culture. The class given is cell-based. To be noted: read-out: control of Fusarium culmorum.
Series [7] has as its system Fusarium culmorum. Kind of series: whole plant or invertebrate. The class given is in vivo. Conditions: in Triticum aestivum, read-out: control of Fusarium culmorum.
For series [8], the system named is Gibberella zeae (Fusarium graminearum). Kind of series: whole plant or invertebrate. To be noted: in Triticum aestivum, read-out: control of Gibberella zeae. The class given is in vivo.
Series [9] concerns Monographella nivalis (Microdochium nivale). In words: Monographella nivalis (Microdochium nivale) / liquid culture (foot rot cereals). To be noted: growth inhibition photometrically 4-5 days after application, read-out: control of Monographella nivalis. Format: cell-based. In outline: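 Fungal conidia mixed directly into potato dextrose broth and added to test compound delivered in DMSO. Incubated at 24° C; growth inhibition read photometrically 4-5 days after application.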

Series [10] concerns Mycosphaerella arachidis (Cercospora arachidicola). In words: Mycosphaerella arachidis (Cercospora arachidicola) / liquid culture (early leaf spot). Conditions: growth inhibition photometrically 4-5 days after application, read-out: control of Mycosphaerella arachidis. The class given is cell-based. In outline:
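Spores taken straight from cryostorage are suspended in potato dextrose broth and added to test compound in DMSO. Plates are incubated at 24° C. Growth inhibition is scored photometrically 4-5 days after application.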

For series [11], the system named is Sclerotinia sclerotiorum. Kind of series: Sclerotinia sclerotiorum / liquid culture (cottony rot). To be noted: growth inhibition photometrically 3-4 days after application, read-out: control of Sclerotinia sclerotiorum. The class given is cell-based. An outline of the steps:
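Mycelial fragments from fresh liquid culture in potato dextrose broth added to test compound in DMSO. Incubation at 24° C; growth inhibition read photometrically 3-4 days after application.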

Series [12] relates to Mycosphaerella graminicola (Septoria tritici). Kind of series: Mycosphaerella graminicola (Septoria tritici) / liquid culture (Septoria blotch). The class given is cell-based. Conditions: Zymoseptoria tritici, growth inhibition photometrically 4-5 days after application, read-out: control of Mycosphaerella graminicola. An outline of the steps:
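Conidia suspended in potato dextrose broth and added to test compound supplied in DMSO in 96-well plates. Incubated at 24 °C, and growth inhibition read photometrically 4-5 days after application.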

The subject of series [13] is Alternaria solani. In words: Alternaria solani / tomato / leaf disc (early blight). Conditions: foliar, tomato leaf disks, sprayed 2 days before inoculation, compared to untreated control. The class given is in vivo. As for the experimental part: Example B1: Alternaria solani/Tomato/Leaf Disc (Early Blight) Tomato leaf disks cv. Baby are placed on agar in multiwell plates (24-well format) and sprayed with the formulated test compound diluted in water. The leaf disks are inoculated with a spore suspension of the fungus 2 days after application. The inoculated leaf disks are incubated at 23° C./21° C.

The test system of series [14] is Phaeosphaeria nodorum (Septoria nodorum). In words: Phaeosphaeria nodorum (Septoria nodorum) / wheat / leaf disc preventative (glume blotch). Format: in vivo. To be noted: Parastagonospora nodorum, foliar, wheat leaf segments, inoculated 2 days after application. An outline of the steps:
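Wheat cv. Kanzler leaf segments on agar sprayed preventatively with formulated compound diluted in water, then inoculated with spore suspension 2 days after application. Incubated at 20° C, 75% rh, 12 h light/12 h dark; percent disease control versus untreated scored 5-7 days after application.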

Take `Cn1cc(C(CNC(=O)c2cc(-c3ccc(F)cc3F)on2)c2cnccn2)cn1` (centres unmarked) [Compound P-8, 5-(2,4-difluorophenyl)-N-[2-(1-methylpyrazol-4-yl)-2-pyrazin-2-yl-ethyl]isoxazole-3-carboxamide]: the pest or weed control at 200 ppm in series [1], in series [2] and in series [3] was no less than 80% in each case.

As to `Cc1cccc(C(C)(CNC(=O)c2cc(-c3ccc(F)cc3F)on2)c2cnn(C)c2)n1` (centres unmarked) [Compound P-16, 5-(2,4-difluorophenyl)-N-[2-(1-methylpyrazol-4-yl)-2-(6-methyl-2-pyridyl)propyl] isoxazole-3-carboxamide], the inhibition of growth at 20 ppm in [4], in series [5], in series [6], in series [9], in series [10] and in [11] was no less than 80% in each case. Also, the inhibition of growth at 20 ppm in [12] is no less than 80%. For the same compound, the pest or weed control at 200 ppm in [1], in [7], in series [8] and in series [3] was no less than 80% throughout.

In the case of `Cc1cccc(C(C)(CNC(=O)c2cc(-c3ccc(F)cc3F)on2)c2cnn(C)c2Cl)n1` (centres unmarked) [Compound P-73, N-[2-(5-chloro-1-methyl-pyrazol-4-yl)-2-(6-methyl-2-pyridyl)propyl]-5-(2,4-difluorophenyl) isoxazole-3-carboxamide], the pest or weed control at 200 ppm in series [13], in series [1], in series [7], in series [8], in [14] and in [3] was no less than 80% in each case. The inhibition of growth at 20 ppm in series [4], in series [5], in series [6], in series [9], in series [10] and in series [11] was no less than 80% each time. In addition, the inhibition of growth at 20 ppm in [12] is no less than 80%.

As for `Cn1cc(C(C)(CNC(=O)c2cc(-c3ccc(F)cc3F)on2)c2cccc(C#N)n2)cn1` (centres unmarked) [Compound P-15, N-[2-(6-cyano-2-pyridyl)-2-(1-methylpyrazol-4-yl)propyl]-5-(2,4-difluorophenyl) isoxazole-3-carboxamide], the pest or weed control at 200 ppm in series [13], in series [1], in series [14], in series [2] and in series [3] was no less than 80% in each case. The inhibition of growth at 20 ppm in [4], in [5], in series [6], in series [9], in series [10] and in series [12] was no less than 80% throughout.

As to `Cn1cc([C@](C)(CNC(=O)c2nnc(-c3ccc(F)cc3F)s2)c2cccc(Cl)n2)cn1` [Compound P-35, N-[(2R)-2-(6-chloro-2-pyridyl)-2-(1-methylpyrazol-4-yl)propyl]-5-(2,4-difluorophenyl)-1,3,4-thiadiazole-2-carboxamide], the pest or weed control at 200 ppm in series [13], in series [1], in series [7], in series [8], in series [14] and in series [3] was no less than 80% in each case. The inhibition of growth at 20 ppm in series [4], in [5], in [6], in series [9], in series [10] and in [11] was no less than 80% each time. Besides, in series [12], the inhibition of growth at 20 ppm is no less than 80%.

As for `COC(=O)c1cccc(C(C)(CNC(=O)c2cc(-c3ccc(F)cc3F)on2)c2cnn(C)c2)n1` (centres unmarked) [Compound P-39, methyl 6-[2-[5-(2,4-difluorophenyl)isoxazole-3-carbonyl]amino]-1-methyl-1-(1-methylpyrazol-4-yl)ethyl]pyridine-2-carboxylate], the inhibition of growth at 20 ppm in [4], in series [5], in [9] and in [12] was no less than 80% in each case. Further, the pest or weed control at 200 ppm in series [14] and in series [2] was no less than 80% each time.

For the compound `CC(C)Nc1cccc(C(C)(CNC(=O)c2cc(-c3ccc(F)cc3F)on2)c2cnn(C)c2)n1` (centres unmarked) [Compound P-103, 5-(2,4-difluorophenyl)-N-[2-[6-(isopropylamino)-2-pyridyl]-2-(1-methylpyrazol-4-yl)propyl]isoxazole-3-carboxamide], the inhibition of growth at 20 ppm in series [9] and in [12] was no less than 80% each time. Besides, the pest or weed control at 200 ppm in series [2] is no less than 80%.

Turning to `Cc1ccc(C(C)(CNC(=O)c2cc(-c3ccc(F)cc3F)on2)c2cnn(C)c2)nc1Br` (centres unmarked) [Compound P-110, N-[2-(6-bromo-5-methyl-2-pyridyl)-2-(1-methylpyrazol-4-yl)propyl]-5-(2,4-difluorophenyl) isoxazole-3-carboxamide], the pest or weed control at 200 ppm in series [13], in [1], in [14], in [2] and in series [3] was no less than 80% each time. For the same compound, the inhibition of growth at 20 ppm in [4], in series [5], in series [6], in series [9], in [10] and in [11] was no less than 80% each time. Further, the inhibition of growth at 20 ppm in series [12] was no less than 80%.

`COc1cc(Cl)nc(C(C)(CNC(=O)c2cc(-c3ccc(F)cc3F)on2)c2cnn(C)c2)c1` (centres unmarked) [Compound P-36, N-[2-(6-chloro-4-methoxy-2-pyridyl)-2-(1-methylpyrazol-4-yl)propyl]-5-(2,4-difluorophenyl) isoxazole-3-carboxamide] returned a melting point of 157 to 159 °C. Further, in [4], the inhibition of growth at 20 ppm was no less than 80%. In series [5], the inhibition of growth at 20 ppm was no less than 80%. The pest or weed control at 200 ppm in [1] was no less than 80%. In addition, in [6], the inhibition of growth at 20 ppm was no less than 80%. For the same compound, in [7], the pest or weed control at 200 ppm was no less than 80%. For the same compound, the pest or weed control at 200 ppm in [8] was no less than 80%. Besides, the inhibition of growth at 20 ppm in series [9] was no less than 80%. For the same compound, the inhibition of growth at 20 ppm in series [10] was no less than 80%. In [3], this compound showed a pest or weed control at 200 ppm of no less than 80%. Besides, in [12], the inhibition of growth at 20 ppm is no less than 80%.
